Source: patent publication US8883841B2, “Oncogenic ras-specific cytotoxic compound and methods of use thereof” (The Board of Regents of the University of Texas System, priority 2005, dated 2014)
Where two headings read alike, the source gives them in different places.

Assays:
H460 cells [1] = assay: cells; conditions: Homo sapiens
HKE3 = assay: Cell viability, HKE3 colon cancer cells; format: cell-based, human; conditions: for IC50: Homo sapiens; for IC50 (−LogM): HKE3, Colon
Ovca429 = assay: Cell viability, Ovca429 ovary cancer cells; format: cell-based
H1395 = assay: Cell viability, H1395 lung cancer cells; format: cell-based, human
Hey = assay: Cell viability, Hey ovary cancer cells; format: cell-based
H2122 = assay: Cell viability, H2122 lung cancer cells; format: cell-based, human
H226B cells = assay: Cell viability, H226B lung cancer cells; format: cell-based, human; conditions: for IC50: Homo sapiens; for IC50 (−LogM): H226B, Lung
DLD1 = assay: Cell viability, DLD1 colon cancer cells; format: cell-based, human
miapac = assay: Cell viability, miapac pancreatic cancer cells; format: cell-based, human
H2009 = assay: Cell viability, H2009 lung cancer cells; format: cell-based, human
H1299 cells = assay: Cell viability, H1299 lung cancer cells; format: cell-based, human
T29Kt1 cells [2] = assay: cells; conditions: Homo sapiens, T29Kt1, read-out: IC50 in T29k cells, Table 1
Ovcar443 = assay: Cell viability, Ovcar443 ovary cancer cells; format: cell-based
H2087 = assay: Cell viability, H2087 lung cancer cells; format: cell-based, human
T29 cells [3] = assay: cells; conditions: Homo sapiens, T29, read-out: IC50 in T29 cells
SKOV3 = assay: Cell viability, SKOV3 ovary cancer cells; format: cell-based
Heb44 = assay: Cell viability, Heb44 kidney cells; format: cell-based
A549 cells = assay: Cell viability, A549 lung cancer cells; format: cell-based, human
Hct116 = assay: Cell viability, Hct116 colon cancer cells; format: cell-based, human
A549CK8 = assay: Cell viability, A549CK8 lung cancer cells; format: cell-based, human
H322 cells = assay: Cell viability, H322 lung cancer cells; format: cell-based, human
Capanc-1 = assay: Cell viability, Capanc-1 pancreatic cancer cells; format: cell-based, human
H1933 = assay: Cell viability, H1933 lung cancer cells; format: cell-based, human
Ovcar3 = assay: Cell viability, Ovcar3 ovary cancer cells; format: cell-based
Heb46 = assay: Cell viability, Heb46 kidney cells; format: cell-based
CT116P53 = assay: Cell viability, CT116P53 colon cancer cells; format: cell-based, human
AsPC-1 = assay: Cell viability, AsPC-1 pancreatic cancer cells; format: cell-based, human
H23 = assay: Cell viability, H23 lung cancer cells; format: cell-based, human
Sw620 = assay: Cell viability, Sw620 colon cancer cells; format: cell-based, human; conditions: Sw620, Colon
H460 cells [4] = test system: H460 cells
T29Kt1 cells [5] = test system: T29Kt1 cells
T29 cells [6] = test system: T29 cells
PKCiota = assay: Immunohistochemical staining, subcellular localization of PKCiota; format: cell-based, human; conditions: 12 h; comparators at doses giving similar cell killing
Description: Effects on subcellular localization of PKCiota. […] To further investigate molecular mechanisms of Oncrasin action the inventors studied the subcellular localization of several molecules involved in Ras-signaling pathway because the functions of Ras and other proteins are directly related to their subcellular localizations. For this purpose, T29Kt1 or H460 cells were seeded on cover glass slides and treated with DMSO or Oncrasin-1 for 12 h. Cells were then fixed with paraformaldehyde, permeabilized with Triton X-100 and stained with various antibodies for immunohistochemical examination. […] Nevertheless, substantial subcellular localization change was detected for PKCiota after Oncrasin-1 treatment (FIG. 6). In both H460 and T29Kt1 cells, both PKCiota and PKCzeta were diffusely distributed in cells with high concentration on cell membrane in nucleus, consisting with previous reports that aPKC contains both nuclear localization signal (NLS) and nuclear export signal (NES), and can shuttle between cytoplasm and nucleus, which was regulated by intramolecular conformational changes, phosphorylation or by treatment with growth factors (Perander et al., 2001; White et al., 2002; Neri et al., 1999). […] Such aggregation of PKCiota was not observed in Oncrasin-resistant T29 and H1299 cells. The inventors then tested whether PKCiota aggregation in the nucleus can be induced by other chemotherapeutic agents such as 5-fluorouracil (5-FU) and paclitaxol.

[7] = Homo sapiens, read-out: IC50 (−LogM) (converted)
[8] = at any of the doses tested (dose response)
[9] = up to 100 μM, the highest concentration tested

O=Cc1cn(Cc2cccc([N+](=O)[O-])c2)c2ccccc12 [Oncrasin K68, 1-(3-nitrobenzyl)-1H-indole-3-carbaldehyde]
IC50 (H460 cells [1]; NCI-H460, read-out: IC50 (−LogM), H460, Lung (converted)): 0.0398 µM | IC50 (H460 cells [1]; NCI-H460, read-out: IC50 in H460 cells, Table 1): 0.0398 µM | IC50 (HKE3; read-out: IC50 (−LogM), HKE3, Colon, first HKE3 line (converted)): 0.1 µM | IC50 (HKE3; read-out: IC50 (−LogM), HKE3, Colon, second HKE3 line (converted)): 0.398 µM | IC50 (Ovca429): 31.6 µM | IC50 (H1395; Homo sapiens, NCI-H1395, read-out: IC50 (−LogM) (converted)): < 31.6 µM | IC50 (Hey): < 31.6 µM | IC50 (H2122; Homo sapiens, NCI-H2122, read-out: IC50 (−LogM) (converted)): 1 µM | IC50 (H226B cells; read-out: IC50 (−LogM), H226B, Lung, first H226B line (converted)): 0.00251 µM | IC50 (H226B cells; read-out: IC50 (−LogM), H226B, Lung, second H226B line (converted)): 0.0631 µM | IC50 (DLD1; Homo sapiens, DLD-1, read-out: IC50 (−LogM) (converted)): < 31.6 µM | IC50 (miapac; Homo sapiens, Pancreatic cancer cell, read-out: IC50 (−LogM) (converted)): < 31.6 µM | IC50 (H2009; Homo sapiens, NCI-H2009, read-out: IC50 (−LogM) (converted)): 31.6 µM | IC50 (H1299 cells; Homo sapiens, NCI-H1299, read-out: IC50 (−LogM), h1299, Lung (converted)): 10 µM | IC50 (T29Kt1 cells [2]): 0.501 µM | IC50 (Ovcar443): 10 µM | IC50 (H2087; Homo sapiens, NCI-H2087, read-out: IC50 (−LogM) (converted)): 31.6 µM | IC50 (T29 cells [3]): 31.6 µM | IC50 (SKOV3; Homo sapiens, SK-OV-3): 1 µM | IC50 (Heb44): 0.01 µM | IC50 (A549 cells; Homo sapiens, A549, read-out: IC50 (−LogM), A549, Lung (converted)): 5.01 µM | IC50 (Hct116; Homo sapiens, HCT-116, read-out: IC50 (−LogM), Hct116, Colon (converted)): 0.158 µM | IC50 (A549CK8; [7]): 3.16 µM | IC50 (H322 cells; Homo sapiens, NCI-H322, read-out: IC50 (−LogM) (converted)): 31.6 µM | IC50 (Capanc-1; Homo sapiens, Pancreatic cancer cell, read-out: IC50 (−LogM), capanc1, Pancrease (converted)): 31.6 µM | IC50 (H1933; [7]): 25.1 µM | IC50 (Ovcar3; Homo sapiens, OVCAR-3): 0.158 µM | IC50 (Heb46): 0.2 µM | IC50 (CT116P53; [7]): < 31.6 µM | IC50 (AsPC-1; Homo sapiens, ASPC1, read-out: IC50 (−LogM), ASPC1, Pancrease (converted)): 2 µM | IC50 (H23; Homo sapiens, NCI-H23, read-out: IC50 (−LogM) (converted)): 31.6 µM

OCc1cn(Cc2ccc(Br)cc2)c2ccccc12 [Oncrasin K73, 1H-Indole-3-methanol, 1-{(4-bromophenyl)methyl]-(9CI)]
IC50 (−LogM) (HKE3; first HKE3 line): 6.5 −LogM | IC50 (−LogM) (HKE3; second HKE3 line): 6.1 −LogM | IC50 (−LogM) (Ovca429): 5.5 −LogM | IC50 (−LogM) (H1395; H1395, Lung): >4.5 −LogM | IC50 (−LogM) (Hey): 4.5 −LogM | IC50 (−LogM) (H2122; H2122, Lung): 5.6 −LogM | IC50 (−LogM) (H226B cells; first H226B line): 7 −LogM | IC50 (−LogM) (H226B cells; second H226B line): 5.8 −LogM | IC50 (−LogM) (DLD1; DLD1, Colon): >4.5 −LogM | IC50 (−LogM) (miapac; miapac, Pancrease): >4.5 −LogM | IC50 (−LogM) (H2009; H2009, Lung): >4.5 −LogM | IC50 (−LogM) (H1299 cells; h1299, Lung): >4.5 −LogM | IC50 (−LogM) (Ovcar443): 4.8 −LogM | IC50 (−LogM) (H2087; H2087, Lung): 4.5 −LogM | IC50 (−LogM) (Sw620): >4.5 −LogM | IC50 (−LogM) (SKOV3): 5.5 −LogM | IC50 (−LogM) (Heb44): 7.4 −LogM | IC50 (−LogM) (A549 cells; A549, Lung): >4.5 −LogM | IC50 (−LogM) (Hct116; Hct116, Colon): 5.5 −LogM | IC50 (−LogM) (H460 cells [4]; H460, Lung): 8.5 −LogM | IC50 (−LogM) (A549CK8; A549CK8, Lung): 5.5 −LogM | IC50 (−LogM) (H322 cells; H322, Lung): >4.5 −LogM | IC50 (−LogM) (Capanc-1; capanc1, Pancrease): 5.5 −LogM | IC50 (−LogM) (H1933; H1933, Lung): 4.5 −LogM | IC50 (−LogM) (Ovcar3): 5.9 −LogM | IC50 (−LogM) (Heb46): 6.1 −LogM | IC50 in T29k cells (T29Kt1 cells [5]; Table 1, value is the negative log10 of mol/L): 6.4 | IC50 (−LogM) (CT116P53; CT116P53, Colon): >4.5 −LogM | IC50 (−LogM) (AsPC-1; ASPC1, Pancrease): 5.5 −LogM | IC50 (−LogM) (H23; H23, Lung): 4.5 −LogM

OCc1c[nH]c2ccccc12 [indole-3-carbinol, reference compound]
toxicity to T29Ht1 (T29H) cells (T29Ht1 cells; [8]): did not induce any cytotoxicity | cytotoxicity in T29Ht1 cells (T29Ht1 cells; [9]): did not have any cytotoxic effects | toxicity to T29 cells (T29 cells [6]; [8]): did not induce any cytotoxicity | cytotoxicity in T29 cells (T29 cells [6]; [9]): did not have any cytotoxic effects | cytotoxicity in H460 cells (H460 cells [4]; up to 100 μM): did not have any cytotoxic effects | toxicity to T29K cells (T29Kt1 cells [5]; same dose range as tested for the leader): did not induce any cytotoxicity | cytotoxicity in T29Kt1 cells (T29Kt1 cells [5]; up to 100 μM): did not have any cytotoxic effects

CC(=O)O[C@H]1C(=O)[C@@]2(C)[C@H]([C@H](OC(=O)c3ccccc3)[C@]3(O)C[C@H](OC(=O)[C@H](O)[C@@H](NC(=O)c4ccccc4)c4ccccc4)C(C)=C1C3(C)C)[C@]1(OC(C)=O)CO[C@@H]1C[C@@H]2O [taxol, paclitaxol, reference compound]
PKCiota aggregation in the nucleus, T29Kt1 cells (PKCiota): did not induce PKCiota aggregation
